# According to patent US20090082249A1, “NUTRITIONAL SUPPLEMENT FOR A CATEGORY OF HIV PATIENTS” (N.V. Nutricia, priority 2005, published 2009):
# System: intestinal tight junction permeability
# Test: Inflammatory mediated intestinal tight junction permeability
smiles,measurement,value
"CCCCC/C=C\C/C=C\C/C=C\CCCCC(=O)O [GLA, gamma linolenic acid]",reduction of inflammatory mediated intestinal tight junction permeability,effectively reduce
